Experimental data reported in US11311518B1, “Parenteral dosage form of β3 adrenoreceptor agonists” (Jubilant Pharma Holdings Inc., priority 2021, dated 2022).
In brackets after ≈: the same amount, converted by molar mass.

Legend:
[1] = background statement; cited from earlier work
[2] = system: biomarkers such as uncoupling protein 1 (UCP1), PGC-1α in iWAT (Inguinal white adipose tissue); test: Biomarker expression in iWAT after localized microinjections of the injection formulations; type: in vivo, C57BL/6 mice; settings: dose up to 1 mg per animal; single and multiple localized microinjections in iWAT; indicates marked thermogenesis
Procedure: In certain non-limiting embodiments, the injection formulations were evaluated to determine the effect of mirabegron in animals (such as C57BL/6 mice etc.). The purpose of this study was to determine the effect of mirabegron on modulation in biomarkers such as uncoupling protein 1 (UCP1), Peroxisome proliferator-activated receptor-gamma coactivator-1alpha (PGC-1α) and others in this category to check pharmacokinetics after single and multiple localized microinjections in iWAT (Inguinal white adipose tissue). […]

[3] = Solubility of the API in various solvent systems (saturation solubility studies); type: physicochemical
Text: In developing the parenteral formulation of mirabegron, the present inventors conducted extensive research and experiments. The solubility of API was studied in various solvent systems. For formulating immediate release injectable formulations, the solubility of the drug plays an important role as the final parenteral formulation has to be essentially a clear solution. […] Further, the inventors of the present invention were able to achieve maximum API solubility based on series of saturation solubility studies performed. […] The assessment of the successful development and stability of the solutions has been made on basis of the appearance of the solutions, the pH-value, osmolality, impurities content, and stability. The prepared formulations were found acceptable on these parameters.

Nc1nc(CC(=O)Nc2ccc(CCNC[C@H](O)c3ccccc3)cc2)cs1 [Mirabegron, (R)-2-(2-aminothiazol-4-yl)-4′-{2-[(2-hydroxy-2 phenylethyl)amino]ethyl}acetanilide]
Solubility in water [1]: practically insoluble
Expression of biomarkers in iWAT [2]: statistically significant increase
Solubility of API in Acetate buffer ([3]; Acetate buffer having pH 4.5, saturation solubility studies): maximum solubility
Drug solubility with co-solvent ([3]; co-solvent (such as propylene glycol) with or without heating): failed to achieve desired drug solubility
Solubility of API when pH is adjusted to the acidic side ([3]; pH close to 3.0): soluble
solubility ([3]; solution with pH adjusted to the acidic side, pH 3, aqueous buffer, after pH adjusted to the acidic side): ≤ 100000 µg/mL
Solubility of API in water ([3]; water): practically insoluble
solubility ([3]; water, starting value, before pH adjustment): ~100 µg/mL (≈ 252 µM)
